Measurements as given in US20080241263A1, “Oral and/or Topical Compositions Comprising Prebiotics and Sterols” (priority 2004, published 2008).

Experiments:
Bifidobacterium = assay: Stimulation of growth: enumeration of bifidobacterium in vitro in human faecal homogenate / WC broth; format: cell-based, Bifidobacterium spp; details: incubated up to 24 hours
Experimental: (§1) The stimulation of growth of micro-organisms has been studied by enumerating bifidobacterium and lactobacilli in vitro in the presence of various test substances. More specifically, aliquots (1 mL) of human faecal homogenates (10 g per 100 mL diluent) were added to diluted WC broth (diluted 50:50 with 0.05M phosphate buffer) to which were added the test mixtures and a lactobacillus or bifidobacterium strain. For each of the combinations, parallel tubes were prepared with one set being inoculated with Bifidobacterium spp or Lactobacillus spp. All mixtures were then incubated for up to 24 hours and bacterial numbers enumerated.

Lactobacterium = assay: Stimulation of growth: enumeration of lactobacilli in vitro in human faecal homogenate / WC broth; format: cell-based, Lactobacillus spp; details: incubated up to 24 hours
Experimental: as §1

| Molecule | Bacterial numbers (CFU/ml) (Bifidobacterium; 1% test substance/mixture) | Bacterial numbers (CFU/ml) (Lactobacterium; 1% test substance/mixture) | Bacterial numbers (CFU/ml) (Bifidobacterium; 1% test substance) | Bacterial numbers (CFU/ml) (Lactobacterium; 1% test substance) |
| --- | --- | --- | --- | --- |
| OC[C@H]1O[C@@H](O[C@H]2[C@H](O)[C@@H](O)[C@@H](O[C@]3(CO)O[C@H](CO)[C@@H](O)[C@@H]3O)O[C@@H]2CO)[C@H](O)[C@@H](O)[C@H]1O [C2, Lactosucrose] | 1.1 × 10^7 CFU/ml | 1.1 × 10^6 CFU/ml | – | – |
| CC[C@H](CC[C@@H](C)[C@H]1CC[C@H]2[C@@H]3CC=C4C[C@@H](O)CC[C@]4(C)[C@H]3CC[C@]12C)C(C)C [C5, β-Sitosterol] | – | – | 3.3 × 10^6 CFU/ml | 4.4 × 10^5 CFU/ml |
| CC[C@H](CC[C@@H](C)[C@H]1CC[C@H]2[C@@H]3CC[C@H]4C[C@@H](O)CC[C@]4(C)[C@H]3CC[C@]12C)C(C)C [C6, β-Sitostanol] | – | – | 2.4 × 10^6 CFU/ml | 4.4 × 10^5 CFU/ml |
| CCCCCCCCCCCCCCCC(=O)O[C@H]1CC[C@@]2(C)C(=CC[C@H]3[C@@H]4CC[C@H]([C@H](C)CC[C@@H](CC)C(C)C)[C@@]4(C)CC[C@@H]32)C1 [C7, β-Sitosterolpalmitate] | – | – | 2.7 × 10^6 CFU/ml | 4.4 × 10^5 CFU/ml |
| CCCCCCCCCCCCCCCCCC(=O)O[C@H]1CC[C@@]2(C)[C@@H](CC[C@@H]3[C@@H]2CC[C@]2(C)[C@@H]([C@H](C)CC[C@@H](CC)C(C)C)CC[C@@H]32)C1 [C8, β-Sitostanolstearate] | – | – | 3.2 × 10^6 CFU/ml | 4.5 × 10^5 CFU/ml |
| Betaglucan [C4] | 1.2 × 10^7 CFU/ml | 1.1 × 10^6 CFU/ml | – | – |
| Lactolin [C3] | 1.6 × 10^7 CFU/ml | 1.5 × 10^6 CFU/ml | – | – |
